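Where inhibition never reached the appropriate level, the endpoint shown equals the highest concentration tested. Otherwise, values were interpolated linearly from a five-concentration, 48-hour dose response in 96-well plates. The concentration for 50% growth inhibition is given as GI50. TGI is the concentration that stops growth completely.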
Columns and labels:
Assay in all cases: inhibition of tumour cell growth, NCI panel, 48 h
NCI-H522 lung = tested on: NCI-H522 lung
SK-MEL-5 melanoma = tested on: SK-MEL-5 melanoma
786-0 renal = tested on: 786-0 renal
HCT-116 colon = tested on: HCT-116 colon
SF-539 CNS = tested on: SF-539 CNS
HCC-2998 colon = tested on: HCC-2998 colon
NCI-H23 lung = tested on: NCI-H23 lung
SN12C renal = tested on: SN12C renal
MCF7 breast = tested on: MCF7 breast
PC-3 prostate = tested on: PC-3 prostate
OVCAR-5 ovarian = tested on: OVCAR-5 ovarian
TK-10 renal = tested on: TK-10 renal
OVCAR-3 ovarian = tested on: OVCAR-3 ovarian
DU-145 prostate = tested on: DU-145 prostate
SK-MEL-28 melanoma = tested on: SK-MEL-28 melanoma
HS 578T breast = tested on: HS 578T breast
HOP-62 NSCLC = tested on: HOP-62 NSCLC
SNB-75 CNS = tested on: SNB-75 CNS
T-47D breast = tested on: T-47D breast
HCT-15 colon = tested on: HCT-15 colon
SR leukemia = tested on: SR leukemia
A549 NSCLC = tested on: A549 NSCLC
KM12 colon = tested on: KM12 colon
RXF 393 renal = tested on: RXF 393 renal
SK-OV-3 ovarian = tested on: SK-OV-3 ovarian
MDA-MB-468 breast = tested on: MDA-MB-468 breast
SW-620 colon = tested on: SW-620 colon
HT29 colon = tested on: HT29 colon
HL-60(TB) leukemia = tested on: HL-60(TB) leukemia
NCI/ADR-RES ovarian = tested on: NCI/ADR-RES ovarian
OVCAR-8 ovarian = tested on: OVCAR-8 ovarian
U251 CNS = tested on: U251 CNS
EKVX NSCLC = tested on: EKVX NSCLC
COLO 205 colon = tested on: COLO 205 colon
K-562 leukemia = tested on: K-562 leukemia
SF-295 CNS = tested on: SF-295 CNS
MOLT-4 leukemia = tested on: MOLT-4 leukemia
M14 melanoma = tested on: M14 melanoma
CCRF-CEM leukemia = tested on: CCRF-CEM leukemia
NCI-H460 lung = tested on: NCI-H460 lung
SNB-19 CNS = tested on: SNB-19 CNS
UACC-62 melanoma = tested on: UACC-62 melanoma
IGROV1 ovarian = tested on: IGROV1 ovarian
BT-549 breast = tested on: BT-549 breast
MALME-3M melanoma = tested on: MALME-3M melanoma
MDA-MB-435 = tested on: MDA-MB-435
MDA-MB-231 breast = tested on: MDA-MB-231 breast
UACC-257 melanoma = tested on: UACC-257 melanoma
RPMI-8226 leukemia = tested on: RPMI-8226 leukemia
A498 renal = tested on: A498 renal
NCI-H226 lung = tested on: NCI-H226 lung
SK-MEL-2 melanoma = tested on: SK-MEL-2 melanoma
UO-31 renal = tested on: UO-31 renal
SF-268 CNS = tested on: SF-268 CNS
HOP-92 NSCLC = tested on: HOP-92 NSCLC
LOX IMVI melanoma = tested on: LOX IMVI melanoma
ACHN renal = tested on: ACHN renal
CAKI-1 renal = tested on: CAKI-1 renal
OVCAR-4 ovarian = tested on: OVCAR-4 ovarian

SMILES: Fc1ccc(/C=C/c2nc3ccccc3n3c(-c4ccc(Cl)cc4)nnc23)cc1
- GI50 (NCI-H522 lung): 1.47 µM
- TGI (NCI-H522 lung): 3.01 µM
- GI50 (SK-MEL-5 melanoma): 29.1 µM
- TGI (SK-MEL-5 melanoma): > 100 µM
- GI50 (786-0 renal): 31.5 µM
- TGI (786-0 renal): > 100 µM
- GI50 (HCT-116 colon): 12.5 µM
- TGI (HCT-116 colon): 41.2 µM
- GI50 (SF-539 CNS): 16.8 µM
- TGI (SF-539 CNS): 40.6 µM
- GI50 (HCC-2998 colon): 37.9 µM
- TGI (HCC-2998 colon): > 100 µM
- GI50 (NCI-H23 lung): 17.1 µM
- TGI (NCI-H23 lung): 53 µM
- GI50 (SN12C renal): 13.5 µM
- TGI (SN12C renal): 34.3 µM
- GI50 (MCF7 breast): 1.78 µM
- TGI (MCF7 breast): 34.6 µM
- GI50 (PC-3 prostate): 30.4 µM
- TGI (PC-3 prostate): > 100 µM
- GI50 (OVCAR-5 ovarian): 23.3 µM
- TGI (OVCAR-5 ovarian): > 100 µM
- GI50 (TK-10 renal): 36.9 µM
- TGI (TK-10 renal): > 100 µM
- GI50 (OVCAR-3 ovarian): 23 µM
- TGI (OVCAR-3 ovarian): > 100 µM
- GI50 (DU-145 prostate): 16.6 µM
- TGI (DU-145 prostate): 53.1 µM
- GI50 (SK-MEL-28 melanoma): 54.4 µM
- TGI (SK-MEL-28 melanoma): > 100 µM
- GI50 (HS 578T breast): 29.3 µM
- TGI (HS 578T breast): > 100 µM
- GI50 (HOP-62 NSCLC): 47.7 µM
- TGI (HOP-62 NSCLC): > 100 µM
- GI50 (SNB-75 CNS): 4.47 µM
- TGI (SNB-75 CNS): > 100 µM
- GI50 (T-47D breast): 14.3 µM
- TGI (T-47D breast): > 100 µM
- GI50 (HCT-15 colon): 9.36 µM
- TGI (HCT-15 colon): 25.4 µM
- GI50 (SR leukemia): 2.44 µM
- TGI (SR leukemia): 19.7 µM
- GI50 (A549 NSCLC): 18.8 µM
- TGI (A549 NSCLC): > 100 µM
- GI50 (KM12 colon): > 100 µM
- TGI (KM12 colon): > 100 µM
- GI50 (RXF 393 renal): 10.8 µM
- TGI (RXF 393 renal): 72.5 µM
- GI50 (SK-OV-3 ovarian): 62.6 µM
- TGI (SK-OV-3 ovarian): > 100 µM
- GI50 (MDA-MB-468 breast): 3.78 µM
- TGI (MDA-MB-468 breast): 20.2 µM
- GI50 (SW-620 colon): 11.3 µM
- TGI (SW-620 colon): 25.7 µM
- GI50 (HT29 colon): 11.8 µM
- TGI (HT29 colon): 33 µM
- GI50 (HL-60(TB) leukemia): 27.4 µM
- TGI (HL-60(TB) leukemia): > 100 µM
- GI50 (NCI/ADR-RES ovarian): 30.4 µM
- TGI (NCI/ADR-RES ovarian): > 100 µM
- GI50 (OVCAR-8 ovarian): 16.2 µM
- TGI (OVCAR-8 ovarian): 80.4 µM
- GI50 (U251 CNS): 18.4 µM
- TGI (U251 CNS): 88.6 µM
- GI50 (EKVX NSCLC): 58.3 µM
- TGI (EKVX NSCLC): > 100 µM
- GI50 (COLO 205 colon): 18.9 µM
- TGI (COLO 205 colon): 71.4 µM
- GI50 (K-562 leukemia): 6.46 µM
- TGI (K-562 leukemia): > 100 µM
- GI50 (SF-295 CNS): > 100 µM
- TGI (SF-295 CNS): > 100 µM
- GI50 (MOLT-4 leukemia): 3.74 µM
- TGI (MOLT-4 leukemia): 34.9 µM
- GI50 (M14 melanoma): 14.2 µM
- TGI (M14 melanoma): 32.9 µM
- GI50 (CCRF-CEM leukemia): 2.82 µM
- TGI (CCRF-CEM leukemia): 8.8 µM
- GI50 (NCI-H460 lung): 25.3 µM
- TGI (NCI-H460 lung): > 100 µM
- GI50 (SNB-19 CNS): 51 µM
- TGI (SNB-19 CNS): > 100 µM
- GI50 (UACC-62 melanoma): 21 µM
- TGI (UACC-62 melanoma): > 100 µM
- GI50 (IGROV1 ovarian): 13.8 µM
- TGI (IGROV1 ovarian): 51.4 µM
- GI50 (BT-549 breast): 16 µM
- TGI (BT-549 breast): 72.6 µM
- GI50 (MALME-3M melanoma): 11.3 µM
- TGI (MALME-3M melanoma): 24.9 µM
- GI50 (MDA-MB-435): 26.5 µM
- TGI (MDA-MB-435): > 100 µM
- GI50 (MDA-MB-231 breast): 20 µM
- TGI (MDA-MB-231 breast): 88.4 µM
- GI50 (UACC-257 melanoma): 38.6 µM
- TGI (UACC-257 melanoma): > 100 µM
- GI50 (RPMI-8226 leukemia): 16.7 µM
- TGI (RPMI-8226 leukemia): > 100 µM
- GI50 (A498 renal): > 100 µM
- TGI (A498 renal): > 100 µM
- GI50 (NCI-H226 lung): 31.5 µM
- TGI (NCI-H226 lung): > 100 µM
- GI50 (SK-MEL-2 melanoma): 40.1 µM
- TGI (SK-MEL-2 melanoma): > 100 µM
- GI50 (UO-31 renal): 14.1 µM
- TGI (UO-31 renal): > 100 µM
- GI50 (SF-268 CNS): 67.7 µM
- TGI (SF-268 CNS): > 100 µM
- GI50 (HOP-92 NSCLC): 24.4 µM
- TGI (HOP-92 NSCLC): > 100 µM
- GI50 (LOX IMVI melanoma): 1.61 µM
- TGI (LOX IMVI melanoma): 3.41 µM
- GI50 (ACHN renal): 13.6 µM
- TGI (ACHN renal): 46.2 µM
- GI50 (CAKI-1 renal): 44.2 µM
- TGI (CAKI-1 renal): > 100 µM
- GI50 (OVCAR-4 ovarian): 20.1 µM
- TGI (OVCAR-4 ovarian): 95.6 µM

Source: PubChem BioAssay (NCI)
